Measurements published in PubChem BioAssay (NCI).
Values joined by “and” are separate entries in the source; they are usually repeats but may differ in a detail not shown here. Equal values may be shown once.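 Method: 48-hour compound exposure of cells in 96-well plates, five concentrations, linear interpolation of endpoints. GI50 = concentration required for 50% inhibition of growth. TGI marks complete inhibition of growth.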

Assays:
Assay in all cases: NCI tumour cell line growth inhibition, 48 h
DU-145 prostate = test system: DU-145 prostate
KM12 colon = test system: KM12 colon
NCI/ADR-RES ovarian = test system: NCI/ADR-RES ovarian
PC-3 prostate = test system: PC-3 prostate
RPMI-8226 leukemia = test system: RPMI-8226 leukemia
SK-MEL-2 melanoma = test system: SK-MEL-2 melanoma
SN12C renal = test system: SN12C renal
U251 CNS = test system: U251 CNS
HOP-92 NSCLC = test system: HOP-92 NSCLC
HS 578T breast = test system: HS 578T breast

Row | Compound | GI50 (DU-145 prostate) | TGI (DU-145 prostate) | GI50 (KM12 colon) | TGI (KM12 colon) | GI50 (NCI/ADR-RES ovarian) | TGI (NCI/ADR-RES ovarian) | GI50 (PC-3 prostate) | TGI (PC-3 prostate) | GI50 (RPMI-8226 leukemia) | TGI (RPMI-8226 leukemia) | GI50 (SK-MEL-2 melanoma) | TGI (SK-MEL-2 melanoma) | GI50 (SN12C renal) | TGI (SN12C renal) | GI50 (U251 CNS) | TGI (U251 CNS) | TGI (HOP-92 NSCLC) | GI50 (HOP-92 NSCLC) | GI50 (HS 578T breast) | TGI (HS 578T breast)
1 | Nc1ccc([N+](=O)[O-])cc1N=C/C=C/c1ccccc1 | 13.9 µM | 64.9 µM | 3.87 µM | 51.2 µM | 7.84 µM | > 100 µM | 7.67 µM | > 100 µM | 5.05 µM | > 100 µM | 28.6 µM | > 100 µM | 8.06 µM | > 100 µM | 6.16 µM | 77.5 µM |  |  |  | 
2 | COc1ccc2occ(CCC(=O)O)c2c1 |  |  |  |  |  |  |  |  |  | > 100 µM |  |  |  | > 100 µM |  | > 100 µM | > 100 µM |  |  | 
3 | O=C1CCC2(c3ccc(Cl)cc3)Nc3ncccc3N12 (stereo not drawn) |  |  |  | > 100 µM |  |  |  |  |  | > 100 µM |  | > 100 µM |  | > 100 µM |  | > 100 µM | > 100 µM |  |  | 
4 | CCC12CCCN(Cc3ccccc3)C1c1c(n(C)c3ccccc13)CC2 (stereo not drawn) |  |  |  | > 253 µM |  |  |  |  |  | > 253 µM |  | > 253 µM |  | > 253 µM |  | > 253 µM | > 253 µM |  |  | 
5 | CCC(=O)CC(=O)CCC(=O)Nc1cc(C)ccc1C |  |  |  | > 100 µM |  |  |  |  |  | > 100 µM |  | > 100 µM |  | > 100 µM |  | > 100 µM | > 100 µM |  |  | 
6 | CCCCOC(=O)CNC(=O)OC/C=C/C#CC#C/C=C/COC(=O)NCC(=O)OCCCC |  |  | > 100 µM | > 100 µM |  |  |  |  | > 100 µM | > 100 µM | > 100 µM | > 100 µM | > 100 µM | > 100 µM | > 100 µM | > 100 µM | > 100 µM | > 100 µM |  | 
7 | O=c1/c(=C/c2ccccc2[N+](=O)[O-])sc2nnc(-c3ccco3)n12 |  |  |  | 33.4 µM |  |  |  |  |  |  |  | 34.6 µM |  | > 100 µM |  | 36.6 µM | > 100 µM |  |  | 
8 | Cc1cn2c(=O)c3ncn(C4OC(CO)C(O)C4O)c3n(C)c2n1 (stereo not drawn) |  |  |  | > 100 µM |  |  |  |  |  | > 100 µM |  | > 100 µM |  | > 100 µM |  | > 100 µM | > 100 µM |  |  | 
9 | C#CCOc1cccc(-c2ncc3cc(NC(=O)CCl)ccc3n2)c1 | 1.79 µM | 3.19 µM | 1.61 µM | 3.11 µM | 3.07 µM | > 100 µM |  |  |  |  | 1.58 µM | 3.63 µM | 1.44 µM | 2.93 µM | 1.78 µM | 3.23 µM |  |  |  | 
10 | Cc1ccc(S(=O)(=O)N(C=O)N=C2CCN(Cc3ccccc3)CC2)cc1 |  |  |  | > 100 µM |  |  |  |  |  | > 100 µM |  | > 100 µM |  | > 100 µM |  | > 100 µM |  |  |  | 
11 | CC[As](CC)SC[C@H](C)C(=O)N1CCC[C@H]1C(=O)O | 0.0297 µM | 0.104 µM | 0.301 µM | 1.27 µM | 0.0152 µM | 0.13 µM | 0.106 µM | 0.589 µM | < 0.01 µM | 0.0112 µM | 0.522 µM | 1.77 µM | 0.0637 µM | 0.218 µM | 0.197 µM | 0.576 µM | 0.0933 µM | 0.0177 µM |  | 
12 | O=C(Nc1ccn(CCO)c(=O)n1)c1ccccc1 |  |  |  | > 100 µM |  |  |  |  |  | > 100 µM |  | > 100 µM |  | > 100 µM |  | > 100 µM | > 100 µM |  |  | 
13 | N.N.N.N.O=C([O-])CCl.O=C([O-])CCl.[Co+3].[O-][Cl+3]([O-])([O-])[O-] |  |  | > 100 µM | > 100 µM |  |  |  |  | > 100 µM | > 100 µM | > 100 µM | > 100 µM | > 100 µM | > 100 µM | > 100 µM | > 100 µM | > 100 µM | 86.5 µM |  | 
14 | CCOC(=O)C1=CN(C)C=C(C(=O)OCC)C1c1cc(Br)c(OCC)c(OC)c1 | > 100 µM | > 100 µM | 35 µM | > 100 µM | > 100 µM | > 100 µM | 8.29 µM | > 100 µM | 25.8 µM | > 100 µM |  |  | > 100 µM | > 100 µM | > 100 µM | > 100 µM | > 100 µM | 20.5 µM | 32.6 µM | > 100 µM
15 | N#CN/C(N)=N/CO |  |  |  | > 55.2 µM |  |  |  |  |  | > 76.2 µM |  | > 100 µM |  | > 100 µM |  | > 90.2 µM | > 100 µM |  |  | 
16 | Clc1ccc2c(c1)[nH]c1c2nc2ccccn21 |  |  |  | 35.7 µM and 32 µM |  |  |  |  |  | 64.7 µM and 54.5 µM |  | > 100 µM and 17.8 µM | 36.1 µM and 15.4 µM | > 100 µM and 32.2 µM | > 100 µM and 11.9 µM | > 100 µM and 24.5 µM |  |  |  | 
17 | CC12C/C(=C\c3ccccc3)C(=O)C3C1CCCC32 |  |  |  | > 100 µM |  |  |  |  |  | > 100 µM |  | > 100 µM |  | > 100 µM |  | > 100 µM | > 100 µM |  |  | 
18 | O=C(CCN(C(=O)O)S(=O)(=O)c1ccc(NC(=O)c2ccccc2)cc1)Nc1ccccc1 |  |  |  | > 100 µM |  |  |  |  |  | > 82.4 µM |  | > 100 µM |  | > 100 µM |  | > 100 µM | > 100 µM |  |  | 
19 | CC(C)C(CCl)NC(=O)c1cccc(C(=O)N[C@H](CCl)C(C)C)n1 (stereo in doubt) |  |  |  | > 100 µM |  |  |  |  |  | > 100 µM |  |  |  | > 100 µM |  | > 100 µM | > 100 µM |  |  | 
20 | COC(=O)C(C(=O)c1ccccc1)C(C(=O)C(=O)Nc1ccc(OC)cc1OC)C(=O)C(=O)c1ccc(C)cc1 (stereo not drawn) |  |  |  | > 100 µM |  |  |  |  |  | > 100 µM |  | > 100 µM |  | > 100 µM |  | > 100 µM |  |  |  | 
21 | CCOC(=O)c1cnc2c(ccc3[nH]n(C)nc32)c1=O |  |  |  | > 100 µM |  |  |  |  |  | 67.5 µM |  | 46.1 µM |  | > 100 µM |  | 68.9 µM | > 100 µM |  |  | 
22 | COC(=O)C1c2cc3c(cc2C(OC2OC(C)C(OC)C(C)(OC)C2OC)CC1(C)O)C(=O)c1c(O)cc2c(c1C3=O)OC1OC2(C)C(O)C([N+](C)(C)[O-])C1O (stereo not drawn) |  | > 30.1 µM |  |  |  | > 64.3 µM |  | > 40.7 µM |  | > 100 µM |  | 0.641 µM |  | 1.8 µM |  |  |  |  |  | 25.6 µM
23 | CC(C)CCC1CC2C(=O)N(c3ccccc3)C(=O)C2c2[nH]c3ccccc3c21 (stereo not drawn) |  |  |  | 14.8 µM |  |  |  |  |  | 11.8 µM |  |  |  | 15.4 µM |  | 3.5 µM |  |  |  | 
24 | CNCc1ccccc1-c1csc([C@@H](C)Nc2nc(C)nc3cc(OC)c(OC)cc23)c1 | 4.59 µM | 15.6 µM | 3.27 µM | 11.9 µM | 2.01 µM | 4.68 µM | 4.01 µM | 12.3 µM | 1.77 µM | 4.3 µM | 1.87 µM | 3.69 µM | 1.48 µM | 5.02 µM | 1.48 µM | 3 µM |  |  |  | 
25 | CSc1nc(=O)n(CCC#N)nc1SC |  | > 100 µM |  | > 100 µM |  | > 100 µM |  | > 100 µM |  | 98.4 µM |  | 39.8 µM |  | > 100 µM |  | > 100 µM |  |  |  | > 100 µM
26 | CN1CC(=O)N2Cc3ccccc3-n3cccc3C2C1 (stereo not drawn) |  |  |  | > 100 µM |  |  |  |  |  |  |  | > 100 µM |  | > 100 µM |  | > 100 µM |  |  |  | 
27 | OC(CC1SCCCS1)c1ccccc1 (stereo not drawn) |  |  |  | > 100 µM |  |  |  |  |  | > 100 µM |  | > 100 µM |  | > 100 µM |  | > 100 µM |  |  |  | 
